The values below come from patent publication US20210220331A1, “INHIBITORS OF IRES-MEDIATED PROTEIN SYNTHESIS” (The Regents of the University of California, priority 2016, published 2021).

Structures are written as SMILES.

What all share (format): cell-based
One experiment has as its system human cyclin D1 IRES. The experiment is described as follows: Dicistronic IRES mRNA reporter assay (firefly luciferase), cyclin D1 IRES. The settings on record: LN229; relative to values obtained with parent compound C11. As to the method:
(§1) Western blot and quantitative RT-PCR analyses were performed as previously described (19). For Western blotting, cells or tissues were lysed in RIPA (lysis) buffer containing protease inhibitor cocktail and phosSTOP phosphatase inhibitor cocktail (Roche) and extracts resolved by SDSPAGE. Proteins were transferred to PVDF membranes and incubated with the indicated antibodies. For IRES reporter assays, the indicated mRNA reporters were cotransfected into cells with pSVβ-galactosidase to normalize for transfection efficiency as described previously (16). Cells were harvested 18 h following transfection and Renilla, firefly and β-galactosidase activities determined using the Dual-Glo Luciferase and β-galactosidase assay systems (Promega).
(§2) (B) Schematic diagrams of the dicistronic constructs used in this study. Constructs used are pRF, pRCD1F, which contains the human cyclin D1 IRES, pRmycF, containing the human c-myc IRES, pRp27F, containing the human p27Kip1 IRES and pRECMVF, containing the IRES from encephalomyocarditis virus. (C) Relative Renilla and firefly luciferase activities obtained from LN229 GBM cells transfected with the indicated constructs in the absence or presence of the inhibitor C11. The mean and +SD are shown for three independent experiments. […] (D) RNA-pull down assays utilizing biotinylated cyclin D1 or c-MYC IRES RNAs. Cytoplasmic extracts of LN229 cells treated with C11 (50 nM) as indicated were incubated with biotinylated cyclin D1 or c-MYC IRES RNAs and precipitated with streptavidin-Sepharose beads. Input and bound fractions were analyzed by immunoblotting using hnRNP A1 antibodies. […] RT-PCR measurements were performed in quadruplicate and the mean and +S.D. are shown. […] (F) Top panel, LN229 cells were treated with C11 as indicated and RT-PCR splicing analysis for Max exon 5 performed as described in the Experimental Methods section. Middle panel, LN229 cells treated with C11 (50 nM) as indicated, were lysed and immunoprecipitated using either eIF-4E or control IgG antibodies. Bound CCND1 or c-MYC RNAs were detected via RT-PCR. The mean and +S.D. are shown for three independent experiments. Bottom panel, cyclin D1 and c-MYC protein levels from the indicated GBM cell lines in the absence or presence of C11 at 24 h following treatment. C11 specifically blocks c-Myc IRES-mediated translation initiation by disrupting the ITAF hnRNP A1-IRES interaction.
(§3) Several dicistronic IRES mRNA reporter constructs were utilized, shown in FIG. 1B, in which the indicated IRES sequences were inserted within the intercistronic region. LN229 cells transiently transfected with these constructs were assayed for Renilla and firefly luciferase activities, which are readouts of cap-dependent and IRES-mediated translation initiation, respectively (16). […]
(In general: In a reporter assay the amount or activity of a reporter protein is the signal.)

A further experiment deals with human c-myc IRES. The experiment is described as follows: Dicistronic IRES mRNA reporter assay (firefly luciferase), c-myc IRES. To be noted: LN229; relative to values obtained with parent compound C11. As to the method: as §1, §2, §3
Experiment [1] concerns LN229 cells. Put plainly: Combination analysis with PP242 (XTT, combination index) in LN229. To be noted: combination of PP242 and analog, CI=1.0 dose additive, CI<0.5 synergy, CI<0.3 strong synergy. An excerpt: Fold decrease in either PP242-induced cyclin D1 or c-MYC IRES activity in LN229 relative to values obtained with the parent compound C11 are shown for each analog. […] CI=1.0 (dose additive), CI<0.5 (synergy), CI<0.3 (strong synergy).
The structure-activity relationships (SAR) for C11 and related compounds were investigated by synthesizing and testing the analogs listed in Table 1. […] The degree of apoptotic cell death following co-treatment with analog and PP242 was also monitored.

In experiment [2] the test system is LN229 cells. Put plainly: Apoptosis via Annexin V staining in LN229. To be noted: LN229 cotreated with PP242 (50 nM) and analog (100 nM), 24 h.

Take `COc1ccc(N2C(=O)C=CC2=O)cc1` [IRES-J008, 1-(4-Methoxyphenyl)-1H-pyrrole-2,5-dione]: in the experiment with human cyclin D1 IRES, the “Cyclin D1 (decrease): fold decrease in PP242-induced cyclin D1 IRES activity” value (from here on “Cyclin D1 (decrease): fold decrease”) turned out to be 5.58 ± 0.16 fold. Besides, the “c-myc (decrease): fold decrease in PP242-induced c-MYC IRES activity” value (“c-myc (decrease): fold decrease” below) in the experiment with human c-myc IRES amounted to 5.92 ± 0.10 fold. The “CI ED50, 1:100 (combination index)” value with LN229 cells [1] is reported as 0.39. Further, in the experiment on LN229 cells [2], the “% Apoptosis (100 nM)” value turned out to be 75.7%.

On to `COc1ccc(CN2C(=O)C(c3ccccc3)=C(c3ccccc3)C2=O)c(OC)c1` [IRES-J005, 1-((2,4-Dimethoxyphenyl)methyl)-3,4-diphenyl-1H-pyrrole-2,5-dione], for which, in the experiment with human cyclin D1 IRES, the “Cyclin D1 (decrease): fold decrease” value is on record as 1.32 ± 0.14 fold. Moreover, in the experiment with human c-myc IRES, the “c-myc (decrease): fold decrease” value is given as 1.28 ± 0.16 fold. Further, the “CI ED50, 1:100 (combination index)” value with LN229 cells [1] is recorded as 0.91. The “% Apoptosis (100 nM)” value in the experiment with LN229 cells [2] stood at 23.5%.

Regarding `COc1ccc(CN2C(=O)C=CC2=O)c(OC)c1` [IRES-J000, 1-((2,4-Dimethoxyphenyl)methyl)-1H-pyrrole-2,5-dione], the “Cyclin D1 (decrease): fold decrease” value with human cyclin D1 IRES stood at 1.05 ± 0.21 fold. The “c-myc (decrease): fold decrease” value in the experiment on human c-myc IRES is 1.01 ± 0.03 fold. Besides, in the experiment on LN229 cells [1], the “CI ED50, 1:100 (combination index)” value is 0.51. The “% Apoptosis (100 nM)” value in the experiment on LN229 cells [2] was determined as 25.6%.

Take `COc1ccc(CN2C(=O)CCC2=O)c(OC)c1` [IRES-J006, 1-((2,4-Dimethoxyphenyl)methyl)pyrrolidine-2,5-dione]: the “Cyclin D1 (decrease): fold decrease” value with human cyclin D1 IRES came out at 1.26 ± 0.10 fold. The “c-myc (decrease): fold decrease” value in the experiment on human c-myc IRES came to 1.25 ± 0.19 fold. In addition, in the experiment with LN229 cells [1], the “CI ED50, 1:100 (combination index)” value was 0.94. For the same compound, the “% Apoptosis (100 nM)” value with LN229 cells [2] amounted to 20.1%.

`O=C1C=CC(=O)N1Cc1ccccc1` [IRES-J001, 1-Phenylmethyl-1H-pyrrole-2,5-dione]: the “Cyclin D1 (decrease): fold decrease” value in the experiment on human cyclin D1 IRES amounted to 1.49 ± 0.05 fold. For the same compound, the “c-myc (decrease): fold decrease” value in the experiment with human c-myc IRES came to 1.12 ± 0.13 fold. Also, in the experiment with LN229 cells [1], the “CI ED50, 1:100 (combination index)” value came out at 0.89. In addition, in the experiment on LN229 cells [2], the “% Apoptosis (100 nM)” value is 30.2%.

Take `COc1ccc(CN2C(=O)C=CC2=O)cc1` [IRES-J002, 1-((4-Methoxyphenyl)methyl)-1H-pyrrole-2,5-dione]: the “Cyclin D1 (decrease): fold decrease” value in the experiment on human cyclin D1 IRES was determined as 1.60 ± 0.18 fold. Besides, the “c-myc (decrease): fold decrease” value in the experiment on human c-myc IRES was determined as 1.37 ± 0.21 fold. In the experiment with LN229 cells [1], the “CI ED50, 1:100 (combination index)” value amounted to 0.86. Further, the “% Apoptosis (100 nM)” value in the experiment with LN229 cells [2] is listed as 28.6%.

For `COCCCN1C(=O)c2ccccc2C1=O` [IRES-J015, 2-(3-Methoxypropyl)isoindoline-1,3-dione], in the experiment on human cyclin D1 IRES, the “Cyclin D1 (decrease): fold decrease” value amounted to 1.61 ± 0.15 fold. For the same compound, the “c-myc (decrease): fold decrease” value with human c-myc IRES is 1.25 ± 0.24 fold. Further, the “CI ED50, 1:100 (combination index)” value in the experiment on LN229 cells [1] is 0.88. In addition, in the experiment on LN229 cells [2], the “% Apoptosis (100 nM)” value was 18.3%.

As for `O=C1c2ccccc2C(=O)N1Nc1ccccc1` [IRES-J011, 2-(Phenylamino)isoindoline-1,3-dione], in the experiment with human cyclin D1 IRES, the “Cyclin D1 (decrease): fold decrease” value is reported as 1.91 ± 0.1 fold. In addition, the “c-myc (decrease): fold decrease” value in the experiment on human c-myc IRES is given as 1.64 ± 0.18 fold. Further, the “CI ED50, 1:100 (combination index)” value in the experiment with LN229 cells [1] came to 0.86. In addition, the “% Apoptosis (100 nM)” value in the experiment on LN229 cells [2] is reported as 22.8%.

In the case of `O=C1C=CC(=O)N1Cc1ccc(F)cc1` [IRES-J003, 1-((4-Fluorophenyl)methyl)-1H-pyrrole-2,5-dione], the “Cyclin D1 (decrease): fold decrease” value in the experiment with human cyclin D1 IRES came out at 0.97 ± 0.06 fold. Further, the “c-myc (decrease): fold decrease” value with human c-myc IRES is listed as 1.19 ± 0.04 fold. Moreover, the “CI ED50, 1:100 (combination index)” value in the experiment on LN229 cells [1] stood at 0.88. Moreover, in the experiment with LN229 cells [2], the “% Apoptosis (100 nM)” value stood at 27.1%.

Consider `O=C1c2ccccc2C(=O)N1Cc1ccccc1` [IRES-J010, 2-(Phenylmethyl)isoindoline-1,3-dione], for which, in the experiment on human cyclin D1 IRES, the “Cyclin D1 (decrease): fold decrease” value was found to be 1.77 ± 0.16 fold. For the same compound, the “c-myc (decrease): fold decrease” value with human c-myc IRES is on record as 1.94 ± 0.25 fold. In addition, the “CI ED50, 1:100 (combination index)” value in the experiment with LN229 cells [1] was determined as 0.83. Moreover, in the experiment on LN229 cells [2], the “% Apoptosis (100 nM)” value was determined as 19.7%.

`CN(C)c1ccc(N2C(=O)c3ccccc3C2=O)cc1` [IRES-J014, 2-(4-(Dimethylamino)phenyl)isoindoline-1,3-dione]: the “Cyclin D1 (decrease): fold decrease” value with human cyclin D1 IRES is listed as 1.86 ± 0.27 fold. In the experiment on human c-myc IRES, the “c-myc (decrease): fold decrease” value stood at 1.33 ± 0.11 fold. Further, the “CI ED50, 1:100 (combination index)” value in the experiment with LN229 cells [1] worked out at 0.84. Besides, the “% Apoptosis (100 nM)” value in the experiment with LN229 cells [2] worked out at 20.6%.

On to `COc1ccc(CN2C(=O)C(C)=C(C)C2=O)c(OC)c1` [IRES-J004, 1-((2,4-Dimethoxyphenyl)methyl)-3,4-dimethyl-1H-pyrrole-2,5-dione], for which the “Cyclin D1 (decrease): fold decrease” value with human cyclin D1 IRES is 1.42 ± 0.07 fold. Besides, in the experiment on human c-myc IRES, the “c-myc (decrease): fold decrease” value is recorded as 1.39 ± 0.11 fold. Also, the “CI ED50, 1:100 (combination index)” value with LN229 cells [1] turned out to be 0.82. For the same compound, the “% Apoptosis (100 nM)” value with LN229 cells [2] was found to be 24.8%.

In the case of `COc1ccc(N2C(=O)c3ccccc3C2=O)cc1` [IRES-J013, 2-(4-Methoxyphenyl)isoindoline-1,3-dione], the “Cyclin D1 (decrease): fold decrease” value in the experiment with human cyclin D1 IRES amounted to 1.17 ± 0.21 fold. The “c-myc (decrease): fold decrease” value with human c-myc IRES worked out at 1.72 ± 0.06 fold. For the same compound, in the experiment with LN229 cells [1], the “CI ED50, 1:100 (combination index)” value came out at 0.85. Besides, the “% Apoptosis (100 nM)” value in the experiment on LN229 cells [2] turned out to be 19.2%.

As for `O=C1c2ccccc2C(=O)N1N(c1ccccc1)c1ccccc1` [IRES-J012, 2-(Diphenylamino)isoindoline-1,3-dione], the “Cyclin D1 (decrease): fold decrease” value with human cyclin D1 IRES is given as 1.02 ± 0.31 fold. For the same compound, the “c-myc (decrease): fold decrease” value in the experiment on human c-myc IRES is reported as 1.53 ± 0.17 fold. Besides, the “CI ED50, 1:100 (combination index)” value in the experiment with LN229 cells [1] was 0.89. In the experiment with LN229 cells [2], the “% Apoptosis (100 nM)” value is on record as 20.1%.
